Experimental findings from ChEMBL document CHEMBL5518204, “Discovery and Proof of Concept of Potent Dual Polθ/PARP Inhibitors for Efficient Treatment of Homologous Recombination-Deficient Tumors” (J Med Chem, 2024) are described below.

Data set [1] addresses T1, Poly [ADP-ribose] polymerase tankyrase-2 (Homo sapiens, UniProt Q9H2K2).
T1 sequence (Q9H2K2 whole entry): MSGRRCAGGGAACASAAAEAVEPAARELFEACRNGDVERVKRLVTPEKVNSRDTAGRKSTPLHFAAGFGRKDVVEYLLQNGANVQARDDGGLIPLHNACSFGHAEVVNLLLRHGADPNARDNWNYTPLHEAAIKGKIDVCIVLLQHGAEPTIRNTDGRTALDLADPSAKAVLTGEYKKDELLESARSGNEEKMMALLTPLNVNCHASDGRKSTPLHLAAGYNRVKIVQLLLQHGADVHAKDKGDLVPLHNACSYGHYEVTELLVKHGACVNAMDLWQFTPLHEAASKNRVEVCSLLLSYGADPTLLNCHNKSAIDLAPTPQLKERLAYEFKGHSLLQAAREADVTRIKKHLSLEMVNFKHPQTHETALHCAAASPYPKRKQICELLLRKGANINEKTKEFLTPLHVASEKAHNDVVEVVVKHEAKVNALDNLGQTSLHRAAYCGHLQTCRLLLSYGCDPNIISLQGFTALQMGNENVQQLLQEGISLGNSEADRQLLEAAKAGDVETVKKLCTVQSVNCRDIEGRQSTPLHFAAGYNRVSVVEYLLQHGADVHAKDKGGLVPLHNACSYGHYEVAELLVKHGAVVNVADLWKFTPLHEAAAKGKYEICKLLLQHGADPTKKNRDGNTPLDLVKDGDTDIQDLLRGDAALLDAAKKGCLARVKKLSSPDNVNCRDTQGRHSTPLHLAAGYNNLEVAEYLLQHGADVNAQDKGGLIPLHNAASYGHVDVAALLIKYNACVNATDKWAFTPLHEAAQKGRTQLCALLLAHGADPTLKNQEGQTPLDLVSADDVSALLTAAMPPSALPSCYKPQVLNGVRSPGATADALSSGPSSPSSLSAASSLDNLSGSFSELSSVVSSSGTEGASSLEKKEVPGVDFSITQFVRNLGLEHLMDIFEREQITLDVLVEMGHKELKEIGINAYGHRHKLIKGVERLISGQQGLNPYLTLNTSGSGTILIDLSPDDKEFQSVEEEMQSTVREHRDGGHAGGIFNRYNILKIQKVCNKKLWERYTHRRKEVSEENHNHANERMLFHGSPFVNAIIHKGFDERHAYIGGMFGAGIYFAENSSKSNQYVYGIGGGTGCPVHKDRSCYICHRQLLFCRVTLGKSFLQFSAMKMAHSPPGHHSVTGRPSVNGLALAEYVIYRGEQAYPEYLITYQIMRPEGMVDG
Nature of the data set: Inhibition of PARP5b (unknown origin).

Data set [2] can be described thus: Metabolic stability in rat liver microsome assessed as half life. It counts as ADME. Conditions: liver microsomes.
Data set [3] has as its system HCC1937. Description: Antiproliferative activity against BRCA1-deficient human HCC1937 cells assessed as inhibition of cell proliferation incubated for 5 days by MTT assay. It counts as functional, cell-based. Conditions: HCC1937, 120 h.
Data set [4] concerns HCT-116. Description: Antiproliferative activity against BRCA2-deficient human HCT-116 cells assessed as inhibition of cell proliferation incubated for 5 days by MTT assay. Conditions: HCT-116, 120 h. It counts as functional, cell-based.
Data set [5] has as its target T2, DNA polymerase theta (Homo sapiens, UniProt O75417). Nature of the data set: Inhibition of DNA polymerase theta (unknown origin) ATPase activity incubated for 60 mins in presence of ATP by ADP-glo kinase assay.
A short description of data set [6]: Tmax in Sprague-Dawley rat at 1 mg/kg, iv by LC-MS/MS analysis. Conditions: in vivo. It counts as ADME, organism-based.
Data set [7] concerns the target T3, Protein mono-ADP-ribosyltransferase PARP10 (Homo sapiens, UniProt Q53GL7).
T3 sequence (Q53GL7 whole entry): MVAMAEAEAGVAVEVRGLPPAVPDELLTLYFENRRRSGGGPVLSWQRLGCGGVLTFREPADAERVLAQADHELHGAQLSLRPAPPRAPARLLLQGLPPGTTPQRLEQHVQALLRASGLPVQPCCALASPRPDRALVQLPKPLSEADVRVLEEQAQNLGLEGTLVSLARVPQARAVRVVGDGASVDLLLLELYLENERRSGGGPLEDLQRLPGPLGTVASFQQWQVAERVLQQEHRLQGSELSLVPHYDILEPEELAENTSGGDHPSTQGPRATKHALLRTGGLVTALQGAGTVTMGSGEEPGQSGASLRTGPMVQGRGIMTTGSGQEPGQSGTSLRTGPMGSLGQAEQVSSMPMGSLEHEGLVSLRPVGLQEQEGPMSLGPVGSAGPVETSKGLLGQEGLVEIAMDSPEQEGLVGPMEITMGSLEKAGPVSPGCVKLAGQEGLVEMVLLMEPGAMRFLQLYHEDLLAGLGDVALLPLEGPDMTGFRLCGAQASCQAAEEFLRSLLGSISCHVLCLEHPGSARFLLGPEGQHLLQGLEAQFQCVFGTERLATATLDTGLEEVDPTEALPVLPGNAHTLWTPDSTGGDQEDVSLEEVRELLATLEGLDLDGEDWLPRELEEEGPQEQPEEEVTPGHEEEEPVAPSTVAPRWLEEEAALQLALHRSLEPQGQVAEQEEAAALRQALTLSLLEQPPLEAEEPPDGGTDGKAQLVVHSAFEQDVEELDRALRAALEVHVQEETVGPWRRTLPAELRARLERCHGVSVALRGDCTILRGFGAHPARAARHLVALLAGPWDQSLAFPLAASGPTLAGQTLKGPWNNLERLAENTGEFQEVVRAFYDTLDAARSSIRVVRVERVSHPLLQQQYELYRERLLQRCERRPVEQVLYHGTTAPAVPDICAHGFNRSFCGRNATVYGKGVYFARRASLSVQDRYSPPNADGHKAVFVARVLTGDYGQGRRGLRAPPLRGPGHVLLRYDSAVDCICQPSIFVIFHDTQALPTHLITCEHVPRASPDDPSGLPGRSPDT
Description: Inhibition of PARP10 (unknown origin).

Data set [8] deals with MCF-10A. Description: Effect on PARP1 expression in human MCF-10A cells by immunoblotting analysis. In kind it is functional, cell-based.
The subject of data set [9] is MDA-MB-436. Nature of the data set: Antiproliferative activity against BRCA1-deficient human MDA-MB-436 cells assessed as inhibition of cell proliferation incubated for 5 days by MTT assay. It counts as functional, cell-based. Conditions: MDA-MB-436, 120 h.
Data set [10] addresses Poly [ADP-ribose] polymerase 2 (Homo sapiens, UniProt Q9UGN5). Nature of the data set: Inhibition of PARP2 (unknown origin).
The target in data set [11] is T2, DNA polymerase theta. Description: Inhibition of DNA polymerase theta mediated TMEJ repair activity in HEK293 cells incubated for 24 hrs by Nano-glo luciferase assay. It counts as cell-based.

Calls of active or inactive are those of the source. The calls are words filed in the database; no cut-off is given here.

T2 sequence (O75417 whole entry): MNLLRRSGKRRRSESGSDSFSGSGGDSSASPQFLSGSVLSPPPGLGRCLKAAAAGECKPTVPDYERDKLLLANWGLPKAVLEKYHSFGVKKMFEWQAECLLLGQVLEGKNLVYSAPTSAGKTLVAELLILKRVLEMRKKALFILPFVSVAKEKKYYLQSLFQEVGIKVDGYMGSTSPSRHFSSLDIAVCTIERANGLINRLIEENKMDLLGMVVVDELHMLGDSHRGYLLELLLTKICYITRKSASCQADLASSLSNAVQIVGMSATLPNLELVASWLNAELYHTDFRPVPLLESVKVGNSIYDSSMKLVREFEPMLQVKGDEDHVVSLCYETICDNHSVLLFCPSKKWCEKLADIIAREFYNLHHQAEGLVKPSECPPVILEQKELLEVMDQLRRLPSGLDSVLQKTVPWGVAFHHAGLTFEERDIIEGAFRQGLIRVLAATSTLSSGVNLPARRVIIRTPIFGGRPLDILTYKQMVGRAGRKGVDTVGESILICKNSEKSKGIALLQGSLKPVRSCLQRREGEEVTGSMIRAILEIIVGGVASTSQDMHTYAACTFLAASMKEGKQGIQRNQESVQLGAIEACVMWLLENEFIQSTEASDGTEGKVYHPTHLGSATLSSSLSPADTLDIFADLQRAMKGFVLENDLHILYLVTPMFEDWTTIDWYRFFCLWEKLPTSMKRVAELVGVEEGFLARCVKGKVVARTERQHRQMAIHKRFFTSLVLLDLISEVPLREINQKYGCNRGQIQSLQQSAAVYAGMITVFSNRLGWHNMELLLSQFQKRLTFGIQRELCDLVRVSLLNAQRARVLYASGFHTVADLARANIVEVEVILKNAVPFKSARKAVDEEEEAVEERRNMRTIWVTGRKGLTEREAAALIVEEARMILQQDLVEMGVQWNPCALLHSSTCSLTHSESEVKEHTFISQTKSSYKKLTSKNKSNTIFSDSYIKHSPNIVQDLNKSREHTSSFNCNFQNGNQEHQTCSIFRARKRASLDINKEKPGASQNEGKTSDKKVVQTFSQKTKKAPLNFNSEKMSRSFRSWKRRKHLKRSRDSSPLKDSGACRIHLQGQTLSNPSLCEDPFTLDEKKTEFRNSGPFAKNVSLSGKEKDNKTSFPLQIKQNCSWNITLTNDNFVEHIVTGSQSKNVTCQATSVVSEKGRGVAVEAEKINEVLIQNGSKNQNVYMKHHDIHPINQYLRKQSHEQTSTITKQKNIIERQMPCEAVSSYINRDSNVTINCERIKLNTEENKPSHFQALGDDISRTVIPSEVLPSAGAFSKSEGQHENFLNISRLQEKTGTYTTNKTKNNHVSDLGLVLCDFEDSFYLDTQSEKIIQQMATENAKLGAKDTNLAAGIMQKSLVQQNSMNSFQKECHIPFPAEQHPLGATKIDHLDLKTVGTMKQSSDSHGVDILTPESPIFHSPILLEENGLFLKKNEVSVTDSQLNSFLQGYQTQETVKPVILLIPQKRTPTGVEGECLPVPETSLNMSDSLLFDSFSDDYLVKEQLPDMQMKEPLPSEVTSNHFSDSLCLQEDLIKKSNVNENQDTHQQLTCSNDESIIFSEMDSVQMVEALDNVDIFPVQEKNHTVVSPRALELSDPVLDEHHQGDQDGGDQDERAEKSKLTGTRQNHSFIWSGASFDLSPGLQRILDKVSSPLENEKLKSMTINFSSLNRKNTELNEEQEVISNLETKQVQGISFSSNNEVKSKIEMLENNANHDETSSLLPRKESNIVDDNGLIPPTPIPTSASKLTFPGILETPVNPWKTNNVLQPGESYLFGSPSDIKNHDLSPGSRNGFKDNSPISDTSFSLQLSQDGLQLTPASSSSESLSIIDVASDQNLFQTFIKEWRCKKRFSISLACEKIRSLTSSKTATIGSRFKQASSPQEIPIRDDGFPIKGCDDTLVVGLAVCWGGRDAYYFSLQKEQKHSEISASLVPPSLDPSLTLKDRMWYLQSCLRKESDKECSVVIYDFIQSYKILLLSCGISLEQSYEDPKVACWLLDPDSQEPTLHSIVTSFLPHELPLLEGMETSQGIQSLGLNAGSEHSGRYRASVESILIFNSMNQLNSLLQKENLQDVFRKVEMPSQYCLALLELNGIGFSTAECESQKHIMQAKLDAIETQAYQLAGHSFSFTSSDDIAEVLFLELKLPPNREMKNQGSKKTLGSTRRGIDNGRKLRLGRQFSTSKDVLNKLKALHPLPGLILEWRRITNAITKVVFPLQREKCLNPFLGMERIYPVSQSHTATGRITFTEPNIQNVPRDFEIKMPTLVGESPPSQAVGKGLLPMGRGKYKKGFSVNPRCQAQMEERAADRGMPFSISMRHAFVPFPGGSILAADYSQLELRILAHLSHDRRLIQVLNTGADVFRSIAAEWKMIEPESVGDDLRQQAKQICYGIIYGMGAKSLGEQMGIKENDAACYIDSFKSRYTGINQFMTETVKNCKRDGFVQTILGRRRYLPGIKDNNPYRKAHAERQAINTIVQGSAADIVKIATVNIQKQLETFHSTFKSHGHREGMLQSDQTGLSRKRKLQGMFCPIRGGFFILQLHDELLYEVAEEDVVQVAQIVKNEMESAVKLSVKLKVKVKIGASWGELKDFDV
Sequence of Poly [ADP-ribose] polymerase 2 (Q9UGN5 whole entry): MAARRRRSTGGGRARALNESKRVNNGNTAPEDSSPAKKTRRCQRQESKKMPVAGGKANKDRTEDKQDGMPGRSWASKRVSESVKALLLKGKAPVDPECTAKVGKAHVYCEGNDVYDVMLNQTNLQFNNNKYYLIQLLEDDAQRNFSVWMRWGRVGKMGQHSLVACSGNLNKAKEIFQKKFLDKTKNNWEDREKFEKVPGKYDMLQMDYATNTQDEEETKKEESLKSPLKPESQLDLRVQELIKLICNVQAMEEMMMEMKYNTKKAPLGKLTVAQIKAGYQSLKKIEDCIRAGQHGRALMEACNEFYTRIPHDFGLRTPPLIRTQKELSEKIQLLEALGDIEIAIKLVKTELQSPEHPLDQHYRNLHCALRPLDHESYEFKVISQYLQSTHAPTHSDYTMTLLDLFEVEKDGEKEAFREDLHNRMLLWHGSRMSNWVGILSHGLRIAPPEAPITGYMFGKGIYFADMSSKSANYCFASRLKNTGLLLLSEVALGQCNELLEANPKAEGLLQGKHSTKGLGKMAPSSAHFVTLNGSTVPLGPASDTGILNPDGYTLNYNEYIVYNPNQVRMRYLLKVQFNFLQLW

For the compound `COc1ccc(Cl)cc1-c1cc(C)ncc1C(=O)Nc1nnc(OCC2CCN(C(=O)c3cc(Cc4n[nH]c(=O)c5ccccc45)ccc3F)CC2)s1`, the IC50 was determined as 156 nM in [1]; 20900 nM in data set [3]; 8900 nM in data set [4]; 45.6 nM in data set [5]; 1100 nM in data set [7]; 2700 nM in data set [9]. In addition, the IC50 in data set [10] is 2.3 nM; in data set [11], 88 nM. The half-life in data set [2] amounted to 3.11 min. Also, the Tmax in data set [6] came to 4.8 min. For the same compound, in data set [8], the result was Active.
